Data: US8198273B2, “Compounds and methods for kinase modulation, and indications therefor” (Plexxikon Inc., priority 2009, dated 2012)
pIC50: −log10 of the molar value.

Key:
[1] = test system: A375 melanoma cells (B-Raf V600E); assay: A375 cell growth inhibition (ATPlite); type: cell-based; settings: Homo sapiens, A-375, 72 h; A375, 3 days incubation
In short: (§1)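 ATPlite luminescence, taken as a cell-number measure, gave IC50 values after a 3-day 37° C, 5% CO2 incubation. Compounds were tested as 8-point threefold titrations, highest final concentration 10 μM, added to cells seeded the day before.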

[2] = test system: COLO205 colon adenocarcinoma cells (B-Raf V600E); assay: COLO205 cell growth inhibition (ATPlite); type: cell-based; settings: Homo sapiens, COLO 205, 72 h; COLO205, 3 days incubation
In short: as §1

CYP2C9 = CYP2C9 (Homo sapiens, UniProt P11712); assay: CYP2C9 inhibition (fluorescent substrate); type: in vitro ADME; settings: CYP2C9, MFC substrate; read-out: Cyp IC50 2C9
Experimental: (§2) CYP (Cytochrome P450) enzymes are the major drug metabolizing enzymes present in the liver. The inhibition of CYP enzyme activity (IC50) for each of CYP1A2, CYP2C19, CYP2C9, CYP2D6, CYP3A4(BFC) and CYP3A4(BQ) is determined for compounds, where inhibition of metabolism of a known substrate leads to a decrease in the fluorescence of the metabolized product. The fluorescence of the product is monitored as a function of compound concentration.
(§3) Compounds are dissolved in dimethyl sulfoxide to a concentration of 100 mM. These are diluted 1 μL into 82 μL of acetonitrile. […] These are then serially diluted 1:1 (160 μL to 160 μL co-factor mix) for a total of 10 points. A 10 μL aliquot of this final mixture is dispensed into 384 well assay plates and incubated for 10 minutes at 37° C. […] Assay plates are incubated at 37° C. […] The signal versus compound concentration is used to determine the IC50. The enzymes and substrates for this assay are obtained from BD Biosciences.

CYP2D6 = CYP2D6 (Homo sapiens, UniProt P10635); assay: CYP2D6 inhibition (fluorescent substrate); type: in vitro ADME; settings: CYP2D6, AMMC substrate; read-out: Cyp IC50 2D6
Experimental: as §2, §3

[3] = test system: SW620 colon adenocarcinoma cells (wild-type B-RAF); assay: SW620 cell growth inhibition (ATPlite); type: cell-based; settings: Homo sapiens, SW-620, 72 h; SW620, 3 days incubation
In short: as §1

Sequence of CYP2D6 (P10635 whole entry): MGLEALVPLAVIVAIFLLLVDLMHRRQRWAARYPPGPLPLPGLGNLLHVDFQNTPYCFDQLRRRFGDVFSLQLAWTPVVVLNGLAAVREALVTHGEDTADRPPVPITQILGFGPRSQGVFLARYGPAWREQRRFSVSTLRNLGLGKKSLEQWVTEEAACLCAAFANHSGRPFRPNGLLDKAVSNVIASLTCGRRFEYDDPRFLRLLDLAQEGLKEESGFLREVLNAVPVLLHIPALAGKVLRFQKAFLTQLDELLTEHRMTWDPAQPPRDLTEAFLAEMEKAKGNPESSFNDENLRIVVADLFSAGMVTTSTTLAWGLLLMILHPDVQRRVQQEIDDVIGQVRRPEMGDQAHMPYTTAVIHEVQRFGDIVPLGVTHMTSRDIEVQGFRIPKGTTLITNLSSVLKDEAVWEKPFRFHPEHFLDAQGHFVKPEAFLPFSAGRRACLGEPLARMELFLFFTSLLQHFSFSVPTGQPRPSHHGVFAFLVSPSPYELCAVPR
Sequence of CYP2C9 (P11712 whole entry): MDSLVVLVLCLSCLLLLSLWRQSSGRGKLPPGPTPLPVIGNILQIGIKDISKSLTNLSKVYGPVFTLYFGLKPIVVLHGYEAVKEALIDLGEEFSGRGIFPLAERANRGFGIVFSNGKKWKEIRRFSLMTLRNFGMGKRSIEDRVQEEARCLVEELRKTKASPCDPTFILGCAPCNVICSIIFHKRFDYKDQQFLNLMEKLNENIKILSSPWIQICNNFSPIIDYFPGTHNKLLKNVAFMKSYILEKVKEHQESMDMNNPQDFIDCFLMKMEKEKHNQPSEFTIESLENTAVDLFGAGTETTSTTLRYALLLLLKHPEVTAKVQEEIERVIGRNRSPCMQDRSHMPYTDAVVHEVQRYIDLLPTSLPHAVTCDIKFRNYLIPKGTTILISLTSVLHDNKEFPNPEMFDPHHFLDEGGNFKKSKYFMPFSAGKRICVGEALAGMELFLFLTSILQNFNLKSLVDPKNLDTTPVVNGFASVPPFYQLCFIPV

pIC50 [1] | pIC50 [2] | pIC50 (CYP2C9) | pIC50 (CYP2D6) | pIC50 [3] | SMILES
> 6.00 | > 5.30 | < 5.00 | < 5.00 | – | O=C(c1c(F)ccc(NS(=O)(=O)c2c(F)cccc2F)c1F)c1c[nH]c2ncc(Cl)cc12 [P-2003, N-[3-(5-Chloro-1H-pyrrolo[2,3-b]pyridine-3-carbonyl)-2,4-difluoro-phenyl]-2,6-difluoro-benzenesulfonamide]
> 6.00 | > 5.30 | < 5.00 | < 5.00 | < 5.00 | COc1ccnc2[nH]cc(C(=O)c3c(F)ccc(NS(=O)(=O)c4ccccc4F)c3F)c12 [P-2021, N-[2,4-Difluoro-3-(4-methoxy-1H-pyrrolo[2,3-b]pyridine-3-carbonyl)-phenyl]-2-fluoro-benzenesulfonamide]
> 6.00 | > 5.30 | 5.00 to 5.30 | < 5.00 | – | COc1ccnc2[nH]cc(C(=O)c3c(F)ccc(NS(=O)(=O)c4cccc(F)c4)c3F)c12 [P-2023, N-[2,4-Difluoro-3-(4-methoxy-1H-pyrrolo[2,3-b]pyridine-3-carbonyl)-phenyl]-3-fluoro-benzenesulfonamide]
> 5.30 | > 5.30 | < 5.00 | < 5.00 | – | Cc1cnc2[nH]cc(C(=O)c3c(F)ccc(NS(=O)(=O)c4c(F)cccc4F)c3F)c2c1 [P-2024, N-[2,4-Difluoro-3-(5-methyl-1H-pyrrolo[2,3-b]pyridine-3-carbonyl)-phenyl]-2,6-difluoro-benzenesulfonamide]
> 6.00 | > 6.00 | < 5.00 | < 5.00 | < 5.00 | COc1ncc(-c2cnc3[nH]cc(C(=O)c4c(F)ccc(NS(=O)(=O)c5ccccc5F)c4F)c3c2)cn1 [P-2041, N-{2,4-Difluoro-3-[5-(2-methoxy-pyrimidin-5-yl)-1H-pyrrolo[2,3-b]pyridine-3-carbonyl]-phenyl}-2-fluoro-benzenesulfonamide]
> 6.00 | > 7.00 | 5.00 to 5.30 | < 5.00 | < 5.00 | COc1ncc(-c2cnc3[nH]cc(C(=O)c4c(F)ccc(NS(=O)(=O)c5cc(F)ccc5F)c4F)c3c2)cn1 [P-2042, N-{2,4-Difluoro-3-[5-(2-methoxy-pyrimidin-5-yl)-1H-pyrrolo[2,3-b]pyridine-3-carbonyl]-phenyl}-2,5-difluoro-benzenesulfonamide]
> 5.30 | – | < 5.00 | < 5.00 | < 5.00 | N#Cc1cnc2[nH]cc(C(=O)c3cccc(NS(=O)(=O)c4c(F)cccc4F)c3F)c2c1 [P-2054, N-[3-(5-Cyano-1H-pyrrolo[2,3-b]pyridine-3-carbonyl)-2-fluoro-phenyl]-2,6-difluoro-benzenesulfonamide]
> 5.30 | > 6.00 | > 5.30 | < 5.00 | – | Cc1cnc2[nH]cc(C(=O)c3c(F)ccc(NS(=O)(=O)c4cccnc4)c3F)c2c1 [P-2069, Pyridine-3-sulfonic acid [2,4-difluoro-3-(5-methyl-1H-pyrrolo[2,3-b]pyridine-3-carbonyl)-phenyl]-amide]
> 6.00 | > 6.00 | 5.00 to 5.30 | < 5.00 | – | CCCS(=O)(=O)Nc1ccc(F)c(C(=O)c2c[nH]c3ncc(-c4ccc(C(=O)NCC)nc4)cc23)c1F [P-2151, 5-{3-[2,6-Difluoro-3-(propane-1-sulfonylamino)-benzoyl]-1H-pyrrolo[2,3-b]pyridin-5-yl}-pyridine-2-carboxylic acid ethylamide]
> 6.00 | – | > 5.30 | < 5.00 | – | CCCS(=O)(=O)Nc1ccc(F)c(C(=O)c2c[nH]c3ncc(-c4ccc(C(=O)NC)nc4)cc23)c1F [P-2180, 5-{3-[2,6-Difluoro-3-(propane-1-sulfonylamino)-benzoyl]-1H-pyrrolo[2,3-b]pyridin-5-yl}-pyridine-2-carboxylic acid methylamide]
> 6.00 | – | > 5.30 | < 5.00 | – | CCCS(=O)(=O)Nc1ccc(F)c(C(=O)c2c[nH]c3ncc(-c4ccc(C(=O)NC5CC5)nc4)cc23)c1F [P-2181, 5-{3-[2,6-Difluoro-3-(propane-1-sulfonylamino)-benzoyl]-1H-pyrrolo[2,3-b]pyridin-5-yl}-pyridine-2-carboxylic acid cyclopropylamide]
> 6.00 | – | 5.00 to 5.30 | < 5.00 | – | CCCS(=O)(=O)Nc1ccc(F)c(C(=O)c2c[nH]c3ncc(-c4ccc(OC)nc4OC)cc23)c1F [P-2184, Propane-1-sulfonic acid {3-[5-(2,6-dimethoxy-pyridin-3-yl)-1H-pyrrolo[2,3-b]pyridine-3-carbonyl]-2,4-difluoro-phenyl}-amide]
> 5.00 | – | 5.00 to 5.30 | < 5.00 | – | CCCS(=O)(=O)Nc1ccc(F)c(C(=O)c2c[nH]c3ncc(-c4cncc(S(C)(=O)=O)c4)cc23)c1F [P-2188, Propane-1-sulfonic acid {2,4-difluoro-3-[5-(5-methanesulfonyl-pyridin-3-yl)-1H-pyrrolo[2,3-b]pyridine-3-carbonyl]-phenyl}-amide]
> 6.00 | – | 5.00 to 5.30 | < 5.00 | < 5.00 | CCCS(=O)(=O)Nc1ccc(F)c(C(=O)c2c[nH]c3ncc(-c4ccnc(F)c4)cc23)c1F [P-2192, Propane-1-sulfonic acid {2,4-difluoro-3-[5-(2-fluoro-pyridin-4-yl)-1H-pyrrolo[2,3-b]pyridine-3-carbonyl]-phenyl}-amide]
> 5.30 | – | < 5.00 | < 5.00 | – | CCCS(=O)(=O)Nc1ccc(F)c(C(=O)c2c[nH]c3ncc(-c4ccc(S(N)(=O)=O)cc4)cc23)c1F [P-2194, 4-{3-[2,6-Difluoro-3-(propane-1-sulfonylamino)-benzoyl]-1H-pyrrolo[2,3-b]pyridin-5-yl}-benzenesulfonamide]
> 6.00 | – | < 5.00 | < 5.00 | – | CCCS(=O)(=O)Nc1ccc(F)c(C(=O)c2c[nH]c3ncc(-c4cnc(N5CCOCC5)nc4)cc23)c1F [P-2197, Propane-1-sulfonic acid {2,4-difluoro-3-[5-(2-morpholin-4-yl-pyrimidin-5-yl)-1H-pyrrolo[2,3-b]pyridine-3-carbonyl]-phenyl}-amide]
> 5.30 | – | < 5.00 | < 5.00 | – | CCCS(=O)(=O)Nc1ccc(F)c(C(=O)c2c[nH]c3ncc(-c4cnc(OC)nc4OC)cc23)c1F [P-2199, Propane-1-sulfonic acid {3-[5-(2,4-dimethoxy-pyrimidin-5-yl)-1H-pyrrolo[2,3-b]pyridine-3-carbonyl]-2,4-difluoro-phenyl}-amide]
> 6.00 | – | < 5.00 | < 5.00 | < 5.00 | CCCS(=O)(=O)Nc1ccc(F)c(C(=O)c2c[nH]c3ncc(-c4cccc(S(C)(=O)=O)c4)cc23)c1F [P-2228, Propane-1-sulfonic acid {2,4-difluoro-3-[5-(3-methanesulfonyl-phenyl)-1H-pyrrolo[2,3-b]pyridine-3-carbonyl]-phenyl}-amide]
> 7.00 | > 6.00 | 5.00 to 5.30 | < 5.00 | – | CCCS(=O)(=O)Nc1cccc(C(=O)c2c[nH]c3ncc(-c4cnc(N(C)C)nc4)cc23)c1F [P-2408, Propane-1-sulfonic acid {3-[5-(2-dimethylamino-pyrimidin-5-yl)-1H-pyrrolo[2,3-b]pyridine-3-carbonyl]-2-fluoro-phenyl}-amide]
